Here are results for 19 compounds from ChEMBL document CHEMBL1158381, “Molecular properties of psychopharmacological drugs determining non-competitive inhibition of 5-HT3A receptors” (Eur J Med Chem, 2009).

SMILES strings stand for the structures.

This test addresses T1, 5-hydroxytryptamine receptor 3A (Homo sapiens) (UniProt P46098).
T1 sequence (whole entry): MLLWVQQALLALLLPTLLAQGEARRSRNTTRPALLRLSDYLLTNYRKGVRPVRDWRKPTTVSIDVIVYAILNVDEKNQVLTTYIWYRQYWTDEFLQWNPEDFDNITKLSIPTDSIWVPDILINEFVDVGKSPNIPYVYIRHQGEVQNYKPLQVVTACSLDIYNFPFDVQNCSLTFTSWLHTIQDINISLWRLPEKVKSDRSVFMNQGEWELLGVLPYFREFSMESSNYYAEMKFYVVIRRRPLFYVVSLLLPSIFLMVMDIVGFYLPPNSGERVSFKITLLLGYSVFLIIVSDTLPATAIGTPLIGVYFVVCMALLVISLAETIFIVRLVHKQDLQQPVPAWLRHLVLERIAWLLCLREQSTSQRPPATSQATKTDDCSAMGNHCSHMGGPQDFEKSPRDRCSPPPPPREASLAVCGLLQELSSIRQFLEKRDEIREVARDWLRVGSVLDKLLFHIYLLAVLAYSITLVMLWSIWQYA
As to the kind of experiment: Antagonist activity at human 5HT3A receptor expressed in HEK293 cells assessed as inhibition of serotonin-induced inward Na+ current at >= 10 uM. Type of test: functional, cell-based.
For the compound `c1ccc2c(c1)CCc1ccccc1C2`, the inhibition is below 50%.
In the case of `c1ccc2nc3ccccc3cc2c1` it was below 50%; in that of `CCOc1ccccc1O[C@@H](c1ccccc1)[C@@H]1CNCCO1`, above 50%.
Turning to `FC(F)(F)c1ccc2c(c1)Nc1ccccc1S2`, the inhibition is below 50%.
Consider `OCCN1CCN(CCC=C2c3ccccc3Sc3ccc(C(F)(F)F)cc32)CC1`, for which the inhibition was above 50%.
As for `CNCCC(Oc1ccc(C(F)(F)F)cc1)c1ccccc1` (centres undefined), the inhibition is above 50%.
In the case of `COc1ccc2c(c1)N(C[C@H](C)CN(C)C)c1ccccc1S2` it was below 50%.
On to `Cc1nc2n(c(=O)c1CCN1CCC(c3noc4cc(F)ccc34)CC1)CCCC2`, for which the inhibition was below 50%.
In the case of `c1ccc2c(c1)CCc1ccccc1N2` it was above 50%; in that of `NC(=O)N1c2ccccc2C=Cc2ccccc21`, below 50%; in that of `CSc1ccc2c(c1)N(CCC1CCCCN1C)c1ccccc1S2` (centres undefined), above 50%.
Consider `O=C(CCCN1CCC(O)(c2ccc(Cl)cc2)CC1)c1ccc(F)cc1`, for which the inhibition is below 50%.
The figure for `CN(C)CCCN1c2ccccc2CCc2ccccc21` is above 50%.
Regarding `NC(=O)N1c2ccccc2CCc2ccccc21`, the inhibition was below 50%.
Regarding `CC(CN(C)C)CN1c2ccccc2CCc2ccccc21` (centres undefined), the inhibition was above 50%.
Turning to `c1ccc2c(c1)Nc1ccccc1S2`, the inhibition was below 50%.
In the case of `OCCN1CCN(CCCN2c3ccccc3Sc3ccc(C(F)(F)F)cc32)CC1` it was above 50%.
On to `O=C(NCCN1CCOCC1)c1ccc(Cl)cc1`, for which the inhibition was below 50%.
In the case of `CNCCCN1c2ccccc2CCc2ccccc21` it was above 50%.

Usually inhibition stands for how much of the control response was suppressed.
